Data set [1] in a line: Serum drug concentration by LC-MS/MS in ovariectomized mice. In kind it is in vivo. Particulars: female, mouse, oral, 28 days. The method, then: Six to eight week old female mice (n=5-7) purchased from JAX® Mice were ovariectomized (OVX) or sham operated. Twenty days after OVX, treatment was initiated as outlined in the table below. Compounds of Formulas IX and VIII were dissolved in DSMO/PEG 300 (15:85) and were administered by oral gavage. Body weight and MRI measurements, to evaluate total body lean mass, were recorded at the beginning and at the end of the treatment. The animals were treated for twenty-eight days and then sacrificed, pelvic floor muscles isolated, weighed and stored for RNA and protein extraction. The expression of genes involved in catabolism and anabolism of muscle was measured by mRNA analysis. The serum concentrations of the drugs were measured by LC-MS/MS. The statistical analysis was performed using JMP Pro® software utilizing one way analysis of variance.
After samples were thawed, a 100 μL aliquot of mouse serum from each sample was mixed with 200 μL acetonitrile containing 200 nM compound of Formula XIII as the internal standard. After each sample was thoroughly vortex for 15 seconds, the sample was centrifuged at 3000 rpm for 10 min. Approximately 200 μL supernatant was transferred for LC-MS/MS analysis
Stock solutions of compounds of Formulas IX and VIII were 100 μM in DMSO. A dilution of 1:50 with control mouse serum was made and 200 μL of 2 μM was added to the first micro centrifuge tube. […] Transferred 100 μL from tube 1 (2 μM) to tube 2, vortexed and continued the 2 fold dilution through tube 7. 200 μL of acetonitrile containing 200 nM compound of Formula XIII as the internal standard was added to each tube. After vortexing and centrifuging, 200 μL was transferred to LC-MS/MS analysis. The concentration of each standard curve ranged from 1 μM to 0.0078 μM.
The analysis of compounds of Formulas IX and VIII in serum was performed using LC-MS/MS system consisting of Agilent 1100 HPLC with an MDS/Sciex 4000 Q-Trap™ mass spectrometer. The separation was achieved using a C18 analytical column (Alltima™, 2.1×100 mm, 3 μm) protected by a C18 guard column (Phenomenex™ 4.6 mm ID cartridge with holder). Mobile phase was consisting of channel A (95% acetonitrile+5% water+0.1% formic acid) and channel C (95% water+5% acetonitrile+0.1% formic acid) and was delivered isocratically at a flow rate of 0.4 mL/min. The total runtime for compound of Formula IX was 4.5 min, and the volume injected was 10 μL. The total runtime for compound of Formula VIII was also 4.5 min, and the volume injected was 10.0 μL. Multiple reaction monitoring (MRM) scans were made with curtain gas at 30 for compound of Formula IX, 25 for compound of Formula VIII; collision gas at medium for compound of Formula IX, high for compound of Formula VIII; nebulizer gas and auxiliary gases at 60 and source temperature at 550° C. for both. Molecular ions were formed using an ion spray voltage (IS) of 4200 V (negative mode). Declustering potential (DP), entrance potential (EP), collision energy (CE), product ion mass, and cell exit potential (CXP) were optimized with the values of −20.0, −10.0, −30.0, and −15.0, respectively, for the mass pair 388.1/118.1 (compound of Formula IX). Declustering potential (DP), entrance potential (EP), collision energy (CE), product ion mass, and cell exit potential (CXP) were optimized with the values of −95.9, −9.94, −40.0, and −15.0, respectively, for the mass pair 354.0/118.1 (compound of Formula VIII).
Animals were sacrificed 24 h after the last dose to measure the steady state concentration.

Data set [2] deals with postmenopausal women with SUI. Put plainly: Proof of concept clinical study: stress leaks per day by 3 day voiding diary. It counts as in vivo, human. The method, then:
This was initially a single site, proof of concept feasibility study to describe the effect of the S-isomer of the compound of Formula IX (Compound IX) 3 mg in postmenopausal female subjects with SUI. However, data presented herein were from subjects seen at 3 separate sites.
Described is the effect of 12 weeks of treatment of Compound IX on the number of stress urinary incontinence episodes/day as assessed by the 3 day voiding diary. See leaks/day data in Tables 2 (individual subject data from all 3 sites), Tables 4-6 (mean stress leaks for sites 1, 2, and 3, respectively), and FIG. 10 (mean stress leaks/day across all sites). Further, see Table 3 for the durability of this response in subjects assessed at 16, 24, 32 and 40 weeks (and their pad weights).
Subjects were instructed to take one 3 mg softgel capsule per day by mouth, without regard to food intake.
This is a proof of concept feasibility study, so no power calculation was needed. Therefore, up to 35 subjects meeting inclusion/exclusion criteria would be recruited until the enrolled subjects have completed treatment. Further, durability was assessed at 40 weeks. Descriptive statistics were performed to explore changes in primary and secondary outcomes measures between baseline and weeks 12 (end of treatment) or 40 (durability). The primary efficacy measure was a reduction in the number of stress incontinence episodes/day. […] Safety will be determined by the number and type of adverse events reported during treatment, but is reported here from historical data from other clinical trials. Various imputation methods may be explored.
Change in frequency of daily stress urinary incontinence episodes from Baseline to Week 12 and durability at 40 weeks (28 weeks after Compound IX treatment is discontinued).
The data were collected from first 18 patients at 12 weeks and are derived from number of stress leaks reported by subjects in a 3 day voiding diary. […] Table 3 provides durability data of Compound IX for 18 patients and depicts that, for the first 9 subjects, this response was durable out to 40 weeks, i.e., 28 weeks (7 months) after treatment with Compound IX was discontinued. Data collection and analysis is ongoing.

Consider two compounds from patent US20180353460A1, “METHODS OF TREATING UROLOGICAL DISORDERS USING SARMs” (priority 2014, published 2018).

Several values for one entry are separate records, joined by “and”; a condition that tells them apart may be missing. Equal values may be shown once.

For `C[C@](O)(COc1ccc(C#N)cc1)C(=O)Nc1ccc(C#N)c(C(F)(F)F)c1` [Compound IX, (S)—N-(4-Cyano-3-(trifluoromethyl)phenyl)-3-(4-cyanophenoxy)-2-hydroxy-2-methylpropanamide], the concentration at 24 h after the last dose in data set [1] (0.5 mpk p.o.) was determined as 0.862 µM; in data set [1] (2.5 mpk p.o.), 3.85 µM; in data set [1] (5 mpk p.o.) it was 6.07 µM. The “mean stress leaks/day at 40 weeks” value in data set [2] (N=9, 7 months after discontinuation) came to 0.63 leaks/day. The “Stress Leaks % Reduction” value is recorded as 86% in data set [2] (Site 1 (n = 10), week 12); 75% in data set [2] (Site 2 (n = 5), week 12); 78% in data set [2] (Site 3 (n = 2), week 12). The “reduction of mean stress leaks/day from baseline to week 12” value in data set [2] (all sites, 18 patients) is listed as 81%. Moreover, the “mean stress leaks/day at week 12” value in data set [2] (all sites, 18 patients, baseline 5.17) was 1.0 leaks/day and 1.00 leaks/day. In data set [2] (individual patients, 3 mg/day p.o., week 12), the “Leaks/Day (Week 12), stress leaks” value was 2.33 leaks/day and 0 leaks/day (3×) and 1 leaks/day (2×) and 1.33 leaks/day (2×) and 0.33 leaks/day (3×) and 1.66 leaks/day and 1.30 leaks/day and .67 leaks/day and 2.3 leaks/day and .33 leaks/day and 3 leaks/day and 0.67 leaks/day. The “Durability of response: % Reduction in leaks/day Week 16” value in data set [2] (individual patients, 4 weeks post-treatment) was 77% and 100% (5×) and 60% and 50% and 92% and 89% and 79% and 78% and 64% and 65%. Moreover, the “Durability of response: % Reduction in leaks/day Week 24” value in data set [2] (individual patients, 12 weeks post-treatment) is 69% and 100% (6×) and 70% and 42% and 95% and 10% and 57% and 78% and 50% and 60%. In data set [2] (individual patients, 20 weeks post-treatment), the “Durability of response: % Reduction in leaks/day Week 32” value was 54% and 95% and 100% (3×) and 17% and 50% and 36% and 55% and 93%. The “Durability of response: % Reduction in leaks/day Week 40” value in data set [2] (individual patients, 28 weeks post-treatment) is 69% and 100% (5×) and 80% and 42% and 72%. Also, the “patients who were responders (50% or greater reduction in stress leaks/day)” value in data set [2] (week 12, 18 patients) was “all patients were responders and All 18 patients were responders and All 18 subjects and all 18 subjects and 18 of 18”.
For `C[C@](O)(COc1ccc(C#N)cc1)C(=O)Nc1ccc(C#N)c(Cl)c1` [VIII, (S)—N-(3-Chloro-4-cyanophenyl)-3-(4-cyanophenoxy)-2-hydroxy-2-methylpropanamide], the concentration at 24 h after the last dose in data set [1] (0.5 mpk p.o.) was determined as 0.429 µM; in data set [1] (2.5 mpk p.o.) it was 2.44 µM; in data set [1] (5 mpk p.o.), 4.1 µM.
